# Measured values from patent publication US20230085307A1, “PYRIDAZINONE COMPOUND AND HERBICIDE” (NISSAN CHEMICAL CORPORATION, priority 2019, published 2023).
# What was measured:
# [1] = test system: late watergrass; experiment: Test Example 1: herbicidal activity, application before weed generation under submerged conditions (Table 16, symbol A); format: in vivo, late watergrass (Echinochloa oryzicola); settings: amount of applied herbicide 320 g/ha
# Source text: (§1) [Test Example 1] Herbicidal Activity Test by Application before Weed Generation under Submerged Conditions After alluvial soil was placed into 1/10000 are of Wagner pot, water was poured and mixed to form a submerged condition having a water depth of 4 cm. Seeds of late watergrass, Japanese bulrush, and oval-leafed pondweed were sowed in a mixed manner in the aforementioned pot, and then 2.5 leaf stage rice plant seedlings were transplanted thereto. On the day of sowing seeds, the emulsion agent of the compound of the present invention prepared according to Formulation Example 2 was diluted with water so as to achieve a predetermined herbicide amount, and the diluted emulsion agent was applied to the surface of the water. The pot was placed in a greenhouse at 25° C. to 30° C. for growth of the plants. Three weeks after the herbicide application, the effect of the herbicide on each plant was evaluated according to the following criteria. Evaluation Criteria 5: Herbicidal rate of 90% or more (almost completely withered) 4: Herbicidal rate of 70% or more and less than 90% 3: Herbicidal rate of 40% or more and less than 70% 2: Herbicidal rate of 20% or more and less than 40% 1: Herbicidal rate of 5% or more and less than 20% 0: Herbicidal rate of 5% or less (almost no effect)
# [2] = test system: Japanese bulrush; experiment: Test Example 1: herbicidal activity, application before weed generation under submerged conditions (Table 16, symbol B); format: in vivo, Japanese bulrush (Schoenoplectus juncoides); settings: amount of applied herbicide 320 g/ha
# Outline: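 Alluvial soil was flooded to 4 cm depth, weed seeds were sown mixed and 2.5-leaf rice seedlings were transplanted. On sowing day, the compound's emulsion, diluted in water to a set dose, was applied to the water surface. Plants grew at 25–30 °C and were scored 0–5 after three weeks.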
# [3] = test system: oval-leafed pondweed; experiment: Test Example 1: herbicidal activity, application before weed generation under submerged conditions (Table 16, symbol C); format: in vivo, oval-leafed pondweed (Monochoria vaginalis); settings: amount of applied herbicide 320 g/ha
# Source text: as §1
# [4] = test system: barnyard grass; experiment: Test Example 3: herbicidal effect by foliage application, Wagner pot (Table 18, symbol H); format: in vivo, barnyard grass (Echinochloa crus-galli)
# Outline: (§2)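 Plants were sown in alluvial soil held under 0.1–0.5 cm standing water and grown 14 days in a greenhouse at 25–30 °C. An emulsifiable formulation, water-diluted to the set dose, was then sprayed onto the foliage, and effects were scored three weeks later using previously defined criteria.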
# [5] = test system: Chinese sprangletop; experiment: Test Example 3: herbicidal effect by foliage application, Wagner pot (Table 18, symbol D); format: in vivo, chinese sprangletop (Leptochloa chinensis)
# Outline: as §2
# [6] = test system: rice flat sedge; experiment: Test Example 3: herbicidal effect by foliage application, Wagner pot (Table 18, symbol E); format: in vivo, rice flat sedge (Cyperus iria)
# Outline: as §2
# [7] = test system: southern crabgrass; experiment: Test Example 5: herbicidal effect by foliage application, plastic box (Table 20, symbol F); format: in vivo, southern crabgrass (Digitaria ciliaris); settings: foliage application, 320 g/ha, three weeks after application
# Outline: (§3)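 Plants sown in sterilized diluvial soil and grown 14 days in a greenhouse at 25° C to 30° C, then sprayed on the foliage with the compound's emulsion diluted in water to a predetermined herbicide amount. Injury to weeds and crops scored three weeks after application on a visual rating scale.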
# [8] = test system: green foxtail; experiment: Test Example 5: herbicidal effect by foliage application, plastic box (Table 20, symbol G); format: in vivo, green foxtail (Setaria viridis); settings: foliage application, 320 g/ha, three weeks after application
# Outline: as §3
# [9] = test system: barnyard grass; experiment: Test Example 5: herbicidal effect by foliage application, plastic box (Table 20, symbol H); format: in vivo, barnyard grass (Echinochloa crus-galli); settings: foliage application, 320 g/ha, three weeks after application
# Outline: as §3
# [10] = test system: wild oat; experiment: Test Example 5: herbicidal effect by foliage application, plastic box (Table 20, symbol I); format: in vivo, wild oat (Avena fatua); settings: foliage application, 320 g/ha, three weeks after application
# Outline: as §3
# [11] = test system: blackgrass; experiment: Test Example 5: herbicidal effect by foliage application, plastic box (Table 20, symbol J); format: in vivo, blackgrass (Alopecurus myosuroides); settings: foliage application, 320 g/ha, three weeks after application
# Outline: as §3
# [12] = test system: Italian ryegrass; experiment: Test Example 5: herbicidal effect by foliage application, plastic box (Table 20, symbol K); format: in vivo, Italian ryegrass (Lolium multiflorum); settings: foliage application, 320 g/ha, three weeks after application
# Outline: as §3
# [13] = test system: windgrass; experiment: Test Example 5: herbicidal effect by foliage application, plastic box (Table 20, symbol L); format: in vivo, windgrass (Apera spica-venti); settings: foliage application, 320 g/ha, three weeks after application
# Outline: as §3
# [14] = test system: velvetleaf; experiment: Test Example 5: herbicidal effect by foliage application, plastic box (Table 20, symbol M); format: in vivo, velvetleaf (Abutilon theophrasti); settings: foliage application, 320 g/ha, three weeks after application
# Outline: as §3
# [15] = test system: lambsquarters; experiment: Test Example 5: herbicidal effect by foliage application, plastic box (Table 20, symbol O); format: in vivo, lambsquarters (Chenopodium album); settings: foliage application, 320 g/ha, three weeks after application
# Outline: as §3
# [16] = test system: persian speedwell; experiment: Test Example 5: herbicidal effect by foliage application, plastic box (Table 20, symbol R); format: in vivo, Persian speedwell (Veronica persica); settings: foliage application, 320 g/ha, three weeks after application
# Outline: as §3
# [17] = test system: southern crabgrass; experiment: Test Example 4: herbicidal effect by soil treatment (Table 19, symbol F); format: in vivo, southern crabgrass (Digitaria ciliaris); settings: amount of applied herbicide 320 g/ha
# Outline: (§4)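 Three weeks of greenhouse growth at 25° C. to 30° C. followed a uniform surface spray of water-diluted emulsion at a predetermined herbicide amount. Seeds had been sown beforehand under about 1.5 cm of sterilized diluvial soil. Grading followed criteria set out in an earlier test.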
# [18] = test system: green foxtail; experiment: Test Example 4: herbicidal effect by soil treatment (Table 19, symbol G); format: in vivo, green foxtail (Setaria viridis); settings: amount of applied herbicide 320 g/ha
# Outline: as §4
# [19] = test system: barnyard grass; experiment: Test Example 4: herbicidal effect by soil treatment (Table 19, symbol H); format: in vivo, barnyard grass (Echinochloa crus-galli); settings: amount of applied herbicide 320 g/ha
# Outline: as §4
# [20] = test system: velvetleaf; experiment: Test Example 4: herbicidal effect by soil treatment (Table 19, symbol M); format: in vivo, velvetleaf (Abutilon theophrasti); settings: amount of applied herbicide 320 g/ha
# Outline: as §4
# [21] = test system: redroot pigweed; experiment: Test Example 4: herbicidal effect by soil treatment (Table 19, symbol N); format: in vivo, redroot pigweed (Amaranthus retroflexus); settings: amount of applied herbicide 320 g/ha
# Outline: as §4
# [22] = test system: lambsquarters; experiment: Test Example 4: herbicidal effect by soil treatment (Table 19, symbol O); format: in vivo, lambsquarters (Chenopodium album); settings: amount of applied herbicide 320 g/ha
# Outline: as §4
# [23] = test system: redroot pigweed; experiment: Test Example 5: herbicidal effect by foliage application, plastic box (Table 20, symbol N); format: in vivo, redroot pigweed (Amaranthus retroflexus); settings: foliage application, 320 g/ha, three weeks after application
# Outline: as §3
# [24] = amount of applied herbicide 320 g/ha
smiles,measurement,setting,value
CCCC(=O)Oc1c(C)nn(C)c(=O)c1-c1c(-c2ccc(C(F)(F)F)cc2)sc2cc(C)c(C)cc12 [5-097],"Herbicidal effect, A: late watergrass",[1],3 (Herbicidal rate of 40% or more and less than 70%)
same,"Herbicidal effect, B: Japanese bulrush",[2],0 (Herbicidal rate of 5% or less (almost no effect))
same,"Herbicidal effect, C: oval-leafed pondweed",[3],0 (Herbicidal rate of 5% or less (almost no effect))
same,herbicidal effect on barnyard grass (H),[4]; 320 g/ha,4 (Herbicidal rate of 70% or more and less than 90%)
same,herbicidal effect on Chinese sprangletop (D),[5]; 320 g/ha,2 (Herbicidal rate of 20% or more and less than 40%)
same,herbicidal effect on rice flat sedge (E),[6]; 320 g/ha,1 (Herbicidal rate of 5% or more and less than 20%)
same,herbicidal effect on southern crabgrass (F),[7],0 (Herbicidal rate of 5% or less (almost no effect))
same,herbicidal effect on green foxtail (G),[8],0 (Herbicidal rate of 5% or less (almost no effect))
same,herbicidal effect on barnyard grass (H),[9],0 (Herbicidal rate of 5% or less (almost no effect))
same,herbicidal effect on wild oat (I),[10],0 (Herbicidal rate of 5% or less (almost no effect))
same,herbicidal effect on blackgrass (J),[11],0 (Herbicidal rate of 5% or less (almost no effect))
same,herbicidal effect on Italian ryegrass (K),[12],0 (Herbicidal rate of 5% or less (almost no effect))
same,herbicidal effect on windgrass (L),[13],0 (Herbicidal rate of 5% or less (almost no effect))
same,herbicidal effect on velvetleaf (M),[14],0 (Herbicidal rate of 5% or less (almost no effect))
same,herbicidal effect on lambsquarters (O),[15],0 (Herbicidal rate of 5% or less (almost no effect))
same,herbicidal effect on persian speedwell (R),[16],0 (Herbicidal rate of 5% or less (almost no effect))
Cc1nn(C)c(=O)c(-c2c(-c3ccc(OCC=C(Cl)Cl)cc3)sc3ccc(F)cc23)c1O [2-442],"Herbicidal effect, A: late watergrass",[1],3 (Herbicidal rate of 40% or more and less than 70%)
same,"Herbicidal effect, B: Japanese bulrush",[2],2 (Herbicidal rate of 20% or more and less than 40%)
same,"Herbicidal effect, C: oval-leafed pondweed",[3],2 (Herbicidal rate of 20% or more and less than 40%)
same,herbicidal effect on H: barnyard grass,[4]; [24],5 (Herbicidal rate of 90% or more (almost completely withered))
same,herbicidal effect on D: Chinese sprangletop,[5]; [24],2 (Herbicidal rate of 20% or more and less than 40%)
same,herbicidal effect on E: rice flat sedge,[6]; [24],3 (Herbicidal rate of 40% or more and less than 70%)
same,"herbicidal effect, F: southern crabgrass",[17],0 (Herbicidal rate of 5% or less (almost no effect))
same,"herbicidal effect, G: green foxtail",[18],0 (Herbicidal rate of 5% or less (almost no effect))
same,"herbicidal effect, H: barnyard grass",[19],0 (Herbicidal rate of 5% or less (almost no effect))
same,"herbicidal effect, M: velvetleaf",[20],0 (Herbicidal rate of 5% or less (almost no effect))
same,"herbicidal effect, N: redroot pigweed",[21],3 (Herbicidal rate of 40% or more and less than 70%)
same,"herbicidal effect, O: lambsquarters",[22],1 (Herbicidal rate of 5% or more and less than 20%)
same,"F: southern crabgrass, herbicidal effect grade",[7],3 (Herbicidal rate of 40% or more and less than 70%)
same,"G: green foxtail, herbicidal effect grade",[8],3 (Herbicidal rate of 40% or more and less than 70%)
same,"H: barnyard grass, herbicidal effect grade",[9],4 (Herbicidal rate of 70% or more and less than 90%)
same,"M: velvetleaf, herbicidal effect grade",[14],4 (Herbicidal rate of 70% or more and less than 90%)
same,"N: redroot pigweed, herbicidal effect grade",[23],5 (Herbicidal rate of 90% or more (almost completely withered))
same,"O: lambsquarters, herbicidal effect grade",[15],5 (Herbicidal rate of 90% or more (almost completely withered))
